From the supplement of paper PMC9663587

What was measured:
Experiment in all cases: area over the GR curve, 72 h; higher = more effect;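 also: Dye Drop or Deep Dye Drop imaging of viable cells in 384-well plates (Hoechst nuclei, LIVE/DEAD dye), nine half-log doses, GR normalized to DMSO controls and time-zero plates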
[1] = tested on: SUM185PE
[2] = tested on: ZR751
[3] = tested on: CAL851
[4] = tested on: MDAMB231
[5] = tested on: EVSAT
[6] = tested on: MDAMB175VII
[7] = tested on: UACC893
[8] = tested on: MDAMB361
[9] = tested on: MCF10A
[10] = tested on: SUM44PE
[11] = tested on: CAL51
[12] = tested on: MGH312
[13] = tested on: AU565
[14] = tested on: BT474
[15] = tested on: MCF12A

Compound | area over the GR curve [1] [GR] | area over the GR curve [2] [GR] | area over the GR curve [3] [GR] | area over the GR curve [4] [GR] | area over the GR curve [5] [GR] | area over the GR curve [6] [GR] | area over the GR curve [7] [GR] | area over the GR curve [8] [GR] | area over the GR curve [9] [GR] | area over the GR curve [10] [GR] | area over the GR curve [11] [GR] | area over the GR curve [12] [GR] | area over the GR curve [13] [GR] | area over the GR curve [14] [GR] | area over the GR curve [15] [GR]
COc1ccc2c(c1)[C@]1(C[C@H]1c1ccc3c(/C=C/c4ccc(CN5C[C@@H](C)O[C@@H](C)C5)cc4)n[nH]c3c1)C(=O)N2 | 0.161 | 0.451 | 0.761 | 0.765 | 0.531 | 0.589 | 0.416 | 0.425 | 0.817 | 0.898 | 0.562 | 1.19 | 0.725 | 0.475 | 0.499
COc1cccc(OCCCN)c1-c1cc(Nc2cnc(C#N)cn2)n[nH]1 | 0.167 | 0.3 | 0.608 | 1.09 | 0.0022 | 0.245 | 0.171 | 0.828 | 0.301 | 0.75 | 0.528 | 0.0934 | 0.5 | 0.186 | 0.589
CC(=O)Nc1cccc(-n2c(=O)n(C3CC3)c(=O)c3c(Nc4ccc(I)cc4F)n(C)c(=O)c(C)c32)c1 (max 1 µM) | -0.0188 | 0.328 | 0.41 | 0.722 | 0.0263 | 0.938 | 0.434 | 0.219 | 0.527 | 0.186 | 0.0662 | -0.169 | -0.0244 | -0.316 | 0.531
CCc1cnn2c(NCc3ccc[n+]([O-])c3)cc(N3CCCC[C@H]3CCO)nc12 (max 1 µM) | 0.261 | 0.468 | 0.686 | 0.663 | 0.0948 | 0.607 | 0.67 | 0.593 | 0.528 | 0.334 | 0.599 | 0.867 | 0.857 | 0.728 | 0.424
CC(=O)c1c(C)c2cnc(Nc3ccc(N4CCNCC4)cn3)nc2n(C2CCCC2)c1=O (max 3.162 µM) | 0.0458 | 0.12 | -0.0843 | 0.345 | 0.141 | 0.763 | 0.436 | 0.473 | 0.188 | 0.216 | 0.25 | -0.129 | 0.296 | 0.194 | 0.0837
CCc1cncnc1N1CCN(Cc2nc3ccc(C(F)(F)F)cc3[nH]2)CC1 (max 10 µM) | 0.144 | -0.0587 | -0.0315 | 0.0105 | 0.0249 | 0.314 | 0.0713 | 0.0684 | 0.0475 | 0.0041 | 0.0491 | -0.0701 | 0.0402 | -0.104 | -0.0039
CCCCOc1c(C(=O)c2c(F)cc(C)cc2F)c[nH]c2nncc1-2 (max 10 µM) | 0.103 | 0.209 | 0.672 | 0.334 | 0.322 | 0.787 | 0.519 | 0.56 | 0.39 | 1.12 | 0.226 | 0.628 | 0.514 | 0.137 | 0.272
CCN1CCN(Cc2ccc(Nc3ncc(F)c(-c4cc(F)c5nc(C)n(C(C)C)c5c4)n3)nc2)CC1 (max 10 µM) | 0.254 | 0.429 | 0.228 | 0.675 | 0.324 | 0.901 | 0.657 | 0.828 | 0.381 | 0.651 | 0.578 | 0.124 | 0.657 | 0.329 | 0.169
CNc1nc(-c2ccc3c(N)n[nH]c3c2)cc(N2C[C@@H](C(=O)NC3CCCCC3)CC[C@H]2C)n1 (max 10 µM) | 0.224 | 0.257 | 0.201 | 0.149 | 0.257 | 0.59 | 0.137 | 0.636 | -0.0162 | 0.165 | 0.0516 | 0.718 | 0.223 | 0.332 | 0.0618
CO[C@@H](C)Cn1c(=O)n(C)c2cnc3ccc(-c4cncc(C(C)(C)O)c4)cc3c21 (max 10 µM) | 0.679 | 0.691 | 0.771 | 0.607 | 0.795 | 1.32 | 0.992 | 1.47 | 0.447 | 1.02 | 0.631 | 1.21 | 0.793 | 1.15 | 0.476
Cc1nn(C)c(COc2ccc(N3CCN(S(=O)(=O)N(C)C)CC3)cc2)c1-c1cccc2c(CCCOc3cccc4ccccc34)c(C(=O)O)n(CCN3CCOCC3)c12 (max 10 µM) | 0.117 | -0.0518 | 0.0108 | 0.0519 | 0.0097 | 0.0271 | -0.0074 | -0.0172 | 0.0018 | 0.14 | 0.0073 | -0.123 | -0.0201 | -0.0275 | -0.0165
CN(C)CC[C@H](CSc1ccccc1)Nc1ccc(S(=O)(=O)NC(=O)c2ccc(N3CCN(Cc4ccccc4-c4ccc(Cl)cc4)CC3)cc2)cc1[N+](=O)[O-] [ABT-737] (max 10 µM) | 0.319 | 0.0133 | -0.0516 | 0.162 | 0.0258 | 0.0499 | -0.0097 | -0.0339 | 0.0104 | -0.0051 | 0.0125 | 0.224 | 0.0543 | -0.0268 | 0.0052
C=CCn1c(=O)c2cnc(Nc3ccc(N4CCN(C)CC4)cc3)nc2n1-c1cccc(C(C)(C)O)n1 [AZD1775] (max 10 µM) | 0.212 | 0.143 | 0.491 | 0.606 | 0.228 | 0.587 | 0.488 | 0.897 | 0.0857 | 0.502 | 0.461 | 0.334 | 0.496 | 0.387 | 0.255
